Measurements as given in US8222202B2 (priority 2006, dated 2012).
Where two headings read alike, the source gives them in different places. Starred links: 1 amine or outer side, 2 acyl side, 3 side chain; linkers in the order of their positions; H or OH if unused. Positions of bridges follow the written chain, without caps; N, C: chain ends. Non-standard residues stand in square brackets, D forms with d. Residues, ends and D or L forms follow the SMILES beside them. *: point of attachment. Orn(Me) = CN(CCC[C@H](N[*:1])C(=O)[*:2])[*:3]; Ala(2-furyl) = N[C@@H](Cc1ccco1)C(=O)O; X2 = CONC(=O)CC[C@H](N[*:1])C(=O)[*:2]; Orn(iPr) = CC(C)NCCC[C@H](N)C(=O)O; X1 = CCNCCC[C@H](N[*:1])C(=O)[*:2]; Orn(Pr) = CCCNCCC[C@H](N)C(=O)O; 2Thi = N[C@@H](Cc1cccs1)C(=O)O; 3Thi = N[C@@H](Cc1ccsc1)C(=O)O; Aad = N[C@@H](CCCC(=O)O)C(=O)O; NH(3-hydroxypropyl) = OCCCN*; Orn = NCCC[C@H](N)C(=O)O; Dab = NCC[C@H](N)C(=O)O

How the values were obtained:
[1] = test system: anaesthetised Sprague-Dawley male rats; assay: in vivo duration of action, blood pressure test in anaesthetised rats; parameters: species or system rat; conditions: ratio of decay rate of diastolic blood pressure response, AVP 0.1 nmol/kg i.v. to equieffective dose of compound; dibenamine-pretreated rats
Procedure: Blood pressure tests were carried out on anaesthetised Sprague-Dawley male rats (weighing 270-300 g) with catheterised jugular vein and carotid artery. The catheterised carotid artery was used to continuously monitor blood pressure and the jugular vein was used for administration of the compounds tested. Rats received intravenous injections of dibenamine prior to dosing to enhance their responsiveness to V1a receptor agonists (cf. Dekanski, J., Br. J. Pharmacol. 1952, 7, 567-572). […] Dosing intervals were set as time for the blood pressure to decrease to a stable baseline.
Determination of duration of action was based on the decay rate of diastolic arterial blood pressure transient increase. Specifically, for an exponential decay of plasma concentration, it can be shown that, if the response is measured beyond the distribution phase, the rate of decay near the EC50 is linear and inversely proportional to the elimination half-life (Rowland, M. and Tozer, T. in “Clinical Pharmacokinetics, Concepts and Applications”, 3rd ed., Lippincott Williams & Wilkins, Philadelphia, 1995).

[2] = biological target: T1, human oxytocin (hOT) receptor (Homo sapiens, UniProt P30559); assay: luciferase-based transcriptional reporter assay, selectivity hOT versus hV1a; format: cell-based
T1 construct: expressed in transfected cells
T1 sequence (P30559 1-389): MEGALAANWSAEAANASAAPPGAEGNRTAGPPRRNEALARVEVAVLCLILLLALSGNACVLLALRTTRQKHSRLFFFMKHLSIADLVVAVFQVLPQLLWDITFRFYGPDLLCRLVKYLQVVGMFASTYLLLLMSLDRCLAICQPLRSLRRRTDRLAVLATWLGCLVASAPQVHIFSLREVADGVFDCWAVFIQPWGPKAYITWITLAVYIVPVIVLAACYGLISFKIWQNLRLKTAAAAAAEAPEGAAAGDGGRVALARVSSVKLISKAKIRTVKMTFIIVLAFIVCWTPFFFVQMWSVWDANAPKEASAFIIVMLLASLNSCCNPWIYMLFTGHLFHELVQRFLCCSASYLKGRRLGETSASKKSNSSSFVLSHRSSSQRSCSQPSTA
Procedure: (§1) Agonist activity of compounds on the hV1a receptor was determined in a transcriptional reporter assay by transiently transfecting a hV1a receptor expression DNA into HEK-293 cells in concert with a reporter DNA containing intracellular calcium responsive promoter elements regulating expression of firefly luciferase. See Boss, V., Talpade, D. J., Murphy, T. J. J. Biol. Chem. 1996, May 3; 271(18), 10429-10432 for further guidance on this assay. […] To determine selectivity, compounds were tested in luciferase-based transcriptional reporter assays expressing the human oxytocin (hOT) receptor. Assays for other receptors (hV2, hV1b, rat V1a and rat V2) were also conducted.
(§2) The EC50 value given is the geometric mean expressed in nanomol/L (nM). Selectivity values are given as EC50 ratios.

[3] = biological target: T2, hV1a receptor (Homo sapiens, UniProt P37288); assay: hV1a receptor transcriptional reporter (luciferase) agonist assay; format: cell-based
T2 construct: expressed in transfected cells; host or cells: HEK-293
Procedure: as §1, §2

[4] = class symbol, agonist efficacy at hOT receptor compared to AVP
[5] = HEK-293 cells transiently transfected with hV1a receptor, 5 hours exposure, geometric mean, read-out: EC50 hV1a receptor

T2 sequence (P37288 whole entry): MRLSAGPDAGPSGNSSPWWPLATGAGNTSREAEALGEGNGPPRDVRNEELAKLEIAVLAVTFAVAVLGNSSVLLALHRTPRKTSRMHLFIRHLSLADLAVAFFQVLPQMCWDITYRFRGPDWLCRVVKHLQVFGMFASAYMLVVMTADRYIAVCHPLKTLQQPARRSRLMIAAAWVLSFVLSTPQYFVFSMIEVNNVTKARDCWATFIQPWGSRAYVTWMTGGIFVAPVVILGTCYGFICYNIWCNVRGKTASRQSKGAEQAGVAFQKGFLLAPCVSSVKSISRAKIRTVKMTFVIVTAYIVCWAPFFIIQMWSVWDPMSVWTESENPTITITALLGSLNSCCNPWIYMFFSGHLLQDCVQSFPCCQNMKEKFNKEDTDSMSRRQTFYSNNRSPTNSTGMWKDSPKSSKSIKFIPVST

| EC50 [3, 5] [nM] | Structure (SMILES) | in vivo duration relative to AVP [1] | selectivity hOT/hV1a [2, 4] | selectivity hOT/hV1a ([2]; EC50 ratio) | EC50 [3] [nM] | selectivity hOT/hV1a [2] |
| --- | --- | --- | --- | --- | --- | --- |
| 1.45 | CC[C@H](C)[C@@H]1NC(=O)[C@H](Cc2ccccc2)NC(=O)[C@@H](N)CSSC[C@@H](C(=O)N2CCC[C@H]2C(=O)N[C@@H](CCCN)C(=O)NCC(N)=O)NC(=O)[C@H](CC(N)=O)NC(=O)[C@H](CC(N)=O)NC1=O [Compound 30] (H-CFINNCP[Orn]G-NH2; disulfide 1-6; N-terminus and C-terminus assumed) | 1.7 | + (selective hV1a receptor agonist; EC50 hOT/hV1a ratio not determined due to very low agonist efficacy (<30% compared to AVP) at the hOT receptor) |  |  |  |
|  | CC[C@H](C)[C@@H]1NC(=O)[C@H](Cc2ccccc2)NC(=O)[C@@H](N)CSSC[C@@H](C(=O)N2CCC[C@H]2C(=O)N[C@@H](CCCNC(C)C)C(=O)NCC(N)=O)NC(=O)[C@H](CC(N)=O)NC(=O)[C@H](CCC(N)=O)NC1=O [Compound 5] (H-CFIQNCP[Orn(iPr)]G-NH2; disulfide 1-6; N-terminus and C-terminus assumed) | 1.9 |  | 117 | 0.25 |  |
|  | NCCCC[C@H](NC(=O)[C@@H]1CCCN1C(=O)[C@@H]1CSSC[C@H](NC(=O)CNC(=O)CNC(=O)CN)C(=O)N[C@@H](Cc2ccc(O)cc2)C(=O)N[C@@H](Cc2ccccc2)C(=O)N[C@@H](CCC(N)=O)C(=O)N[C@@H](CC(N)=O)C(=O)N1)C(=O)NCC(N)=O [terlipressin, reference compound] (H-GGGCYFQNCPKG-NH2; disulfide 4-9) | 9.1 | + (selective hV1a receptor agonist; EC50 hOT/hV1a ratio not determined due to very low agonist efficacy (<30% compared to AVP) at the hOT receptor) |  | 82.1 |  |
|  | CCNCCC[C@H](NC(=O)[C@@H]1CCCN1C(=O)[C@@H]1CSSC[C@H](N)C(=O)N[C@@H](Cc2ccccc2)C(=O)N[C@@H]([C@@H](C)CC)C(=O)N[C@@H](CCC(N)=O)C(=O)N[C@@H](CC(N)=O)C(=O)N1)C(=O)NCC(N)=O [Compound 6] (H-CFIQNCP[X1]G-NH2; disulfide 1-6; N-terminus and C-terminus assumed) | 1.9 |  | 86 | 0.29 |  |
| 1.15 | CC[C@H](C)[C@@H]1NC(=O)[C@H](Cc2ccccc2)NC(=O)[C@@H](N)CSSC[C@@H](C(=O)N2CCC[C@H]2C(=O)N[C@@H](CCCN)C(=O)NCC(N)=O)NC(=O)[C@H](CC(N)=O)NC(=O)[C@H](CCC(=O)NOC)NC1=O [Compound 10] (H-CFI[X2]NCP[Orn]G-NH2; disulfide 1-6; N-terminus and C-terminus assumed) | 2.3 |  | 11 |  |  |
|  | CC[C@H](C)[C@@H]1NC(=O)[C@H](Cc2ccccc2)NC(=O)[C@@H](N)CSSC[C@@H](C(=O)N2CCC[C@H]2C(=O)N[C@@H](CCN)C(=O)NCC(N)=O)NC(=O)[C@H](CC(N)=O)NC(=O)[C@H](CC(N)=O)NC1=O [Compound 3] (H-CFINNCP[Dab]G-NH2; disulfide 1-6) | 1.7 |  |  | 1.47 | + (key: +: selective hV1a receptor agonist; EC50 hOT/hV1a ratio not determined due to very low agonist efficacy (<30% compared to AVP) at the hOT receptor) |
|  | CC[C@H](C)[C@@H]1NC(=O)[C@H](Cc2ccccc2)NC(=O)[C@@H](N)CSSC[C@@H](C(=O)N2CCC[C@H]2C(=O)N[C@@H](CCCNC(C)C)C(=O)NCC(N)=O)NC(=O)[C@H](CC(N)=O)NC(=O)[C@H](CC(N)=O)NC1=O [Compound 41] (H-CFINNCP[Orn(iPr)]G-NH2; disulfide 1-6) | 2.6 |  |  | 0.98 | 53 |
|  | CC[C@H](C)[C@@H]1NC(=O)[C@H](Cc2ccccc2)NC(=O)[C@@H](N)CSSC[C@@H](C(=O)N2CCC[C@H]2C(=O)N[C@@H](CCCNC)C(=O)NCC(N)=O)NC(=O)[C@H](CC(N)=O)NC(=O)[C@H](CCC(N)=O)NC1=O [Compound 39] (H-CFIQNCP[Orn(Me)]G-NH2; disulfide 1-6; N-terminus and C-terminus assumed) | 1.9 |  | 178 | 0.21 |  |
|  | CC[C@H](C)[C@@H]1NC(=O)[C@H](Cc2cccs2)NC(=O)[C@@H](N)CSSC[C@@H](C(=O)N2CCC[C@H]2C(=O)N[C@@H](CCCNC(C)C)C(=O)NCC(N)=O)NC(=O)[C@H](CC(N)=O)NC(=O)[C@H](CCC(N)=O)NC1=O [Compound 34] (H-C[2Thi]IQNCP[Orn(iPr)]G-NH2; disulfide 1-6) | 2.0 |  |  | 0.73 | 72 |
| 0.61 | CC[C@H](C)[C@@H]1NC(=O)[C@H](Cc2ccsc2)NC(=O)[C@@H](N)CSSC[C@@H](C(=O)N2CCC[C@H]2C(=O)N[C@@H](CCN)C(=O)NCC(N)=O)NC(=O)[C@H](CC(N)=O)NC(=O)[C@H](CCC(N)=O)NC1=O [Compound 15] (H-C[3Thi]IQNCP[Dab]G-NH2; disulfide 1-6) | 2.2 |  | 43 |  |  |
|  | CCCNCCC[C@H](NC(=O)[C@@H]1CCCN1C(=O)[C@@H]1CSSC[C@H](N)C(=O)N[C@@H](Cc2ccccc2)C(=O)N[C@@H]([C@@H](C)CC)C(=O)N[C@@H](CCC(N)=O)C(=O)N[C@@H](CC(N)=O)C(=O)N1)C(=O)NCC(N)=O [Compound 40] (H-CFIQNCP[Orn(Pr)]G-NH2; disulfide 1-6; N-terminus and C-terminus assumed) | 2.0 |  | 88 | 0.27 |  |
|  | CC[C@H](C)[C@@H]1NC(=O)[C@H](Cc2ccccc2)NC(=O)[C@@H](N)CSSC[C@@H](C(=O)N2CCC[C@H]2C(=O)N[C@@H](CCCN)C(=O)NCC(N)=O)NC(=O)[C@H](CC(N)=O)NC(=O)[C@H](CC(=O)NCCCO)NC1=O [Compound 2] (H-CFID(NH(3-hydroxypropyl))NCP[Orn]G-NH2; disulfide 1-6) | 1.7 |  |  | 1.18 | + (key: +: selective hV1a receptor agonist; EC50 hOT/hV1a ratio not determined due to very low agonist efficacy (<30% compared to AVP) at the hOT receptor) |
| 2.41 | CC[C@H](C)[C@@H]1NC(=O)[C@H](Cc2ccccc2)NC(=O)[C@@H](N)CSSC[C@@H](C(=O)N2CCC[C@H]2C(=O)N[C@@H](CCCNC)C(=O)NCC(N)=O)NC(=O)[C@H](CC(N)=O)NC(=O)[C@H](CC(N)=O)NC1=O [Compound 46] (H-CFINNCP[Orn(Me)]G-NH2; disulfide 1-6; N-terminus and C-terminus assumed) | 2.1 | + (selective hV1a receptor agonist; EC50 hOT/hV1a ratio not determined due to very low agonist efficacy (<30% compared to AVP) at the hOT receptor) |  |  |  |
|  | CC[C@H](C)[C@@H]1NC(=O)[C@H](Cc2ccccc2)NC(=O)[C@@H](N)CSSC[C@@H](C(=O)N2CCC[C@H]2C(=O)N[C@@H](CCCN)C(=O)NCC(N)=O)NC(=O)[C@H](CC(N)=O)NC(=O)[C@H](CCCC(N)=O)NC1=O [Compound 9] (H-CFI[Aad](NH2)NCP[Orn]G-NH2; disulfide 1-6) | 1.5 |  |  | 0.68 | + (key: +: selective hV1a receptor agonist; EC50 hOT/hV1a ratio not determined due to very low agonist efficacy (<30% compared to AVP) at the hOT receptor) |
|  | CC[C@H](C)[C@@H]1NC(=O)[C@H](Cc2ccccc2)NC(=O)[C@@H](N)CSSC[C@@H](C(=O)N2CCC[C@H]2C(=O)N[C@@H](CCN)C(=O)NCC(N)=O)NC(=O)[C@H](CC(N)=O)NC(=O)[C@H](CCCC(N)=O)NC1=O [Compound 11] (H-CFI[Aad](NH2)NCP[Dab]G-NH2; disulfide 1-6) | 1.9 |  |  | 2.96 | + (key: +: selective hV1a receptor agonist; EC50 hOT/hV1a ratio not determined due to very low agonist efficacy (<30% compared to AVP) at the hOT receptor) |
| 5.99 | CC[C@H](C)[C@@H]1NC(=O)[C@H](Cc2ccccc2)NC(=O)[C@@H](N)CSSC[C@@H](C(=O)N2CCC[C@H]2C(=O)N[C@@H](CCCN)C(=O)NCC(N)=O)NC(=O)[C@H](CC(N)=O)NC(=O)[C@H](CCC(=O)NC)NC1=O [Compound 19] (H-CFIE(NHMe)NCP[Orn]G-NH2; disulfide 1-6) | 1.6 | + (selective hV1a receptor agonist; EC50 hOT/hV1a ratio not determined due to very low agonist efficacy (<30% compared to AVP) at the hOT receptor) |  |  |  |
|  | CC[C@H](C)[C@@H]1NC(=O)[C@H](Cc2ccco2)NC(=O)[C@@H](N)CSSC[C@@H](C(=O)N2CCC[C@H]2C(=O)N[C@@H](CCCN)C(=O)NCC(N)=O)NC(=O)[C@H](CC(N)=O)NC(=O)[C@H](CCC(N)=O)NC1=O [Compound 25] (H-C[Ala(2-furyl)]IQNCP[Orn]G-NH2; disulfide 1-6) | 2.0 |  |  | 1.4 | 23 |
